Values of other authors, collected in article PMC3991022, “Comparison of Functional Protein Transduction Domains Using the NEMO Binding Domain Peptide” (Pharmaceuticals, 2010).

Test system: mouse model of collagen induced arthritis
Design: method as in PMID 15156202
Conditions: injection of NBD peptide

In the case of TALDWSWLQTE [NBD peptide], the amelioration of arthritis is given as “significantly ameliorated the arthritis”.
